Results: patent publication US20130303533A1, “AZOLOPYRIDINE AND AZOLOPYRIMIDINE COMPOUNDS AND METHODS OF USE THEREOF” (AMBIT BIOSCIENCES CORPORATION, priority 2010, published 2013)

Experiments:
[1] = system: GM-CSFR/JAK2/STAT5 pathway; test: CSTF-1 cell-based reporter assay; details: Homo sapiens; csTF-1 cells, GM-CSF at 2 ng/mL, 4 hours, beta-lactamase reporter; read-out: Cell Assay: CS TF-1 reporter assay IC50
Description: CSTF-1 Cell-Based Reporter Assay
CSTF-1 cells are derived from the human erythroleukemia cell line that is growth dependent on GM-CSF and has an intact GM-CSFR/JAK2/STAT5 pathway. The cell line contains stably integrated beta-lactamase reporter gene under the control of the […] (irf 1) response element recognized by the activated transcription factor STAT5. csTF-1 cells (Invitrogen K1219) were washed with assay media (97% OPTIMEM/0.5% dialyzed FBS/0.1 mM NEAA/1 mM Na pyr/P/S) and seeded in the same media at 5×10^5 cell/mL in T150 flask. After 16 hour incubation, cells were seeded at 2×10^5 cell/well in 50 μl volume, into Costar, clear bottom, 96-well assay plates. Serial dilutions of compounds were added to the plates with final DMSO concentration at 0.5% and GM-CSF at 2 ng/mL and the plates were then incubated at 30° C. and 5% CO2 for 4 hours. The plates were brought to room temperature before adding Substrate Mixture according to manufacturer's protocol (Invitrogen, Catalog #K1085). The assay plates containing the substrate mixture were incubated in the dark at room temperature for 2 hours. Blue and green fluorescence was measured with excitation at 409 nm and emission at 460 nm (for blue) and excitation at 409 nm and emission at 530 nm (for green) using Spectra Max Gemini EM.

JAK2 = target: T1, JAK2 (Homo sapiens, UniProt O60674); test: Competition binding assay to determine binding constants (Kd), JAK2
T1 construct: made in house; host or cells: T7 phage display or HEK-293 cells (alternatives)
Source text: (§1) Competition Binding Assay to Determine Binding Constants (Kd) of the Compounds Against JAK Kinases
(§2) Competition binding assays used herein were developed, validated and performed as described in Fabian et al., Nature Biotechnology 2005, 23, 329-336. Kinases were produced as fusions to T7 phage (See, Fabian et al. or WO04/015142) or alternatively, the kinases were expressed in HEK-293 cells and subsequently tagged with DNA for PCR detection (See, WO08/005,310). For the binding assays, streptavidin-coated magnetic beads were treated with biotinylated affinity ligands for 30 min at rt to generate affinity resins. The liganded beads were blocked with excess biotin and washed with blocking buffer (SeaBlock (Pierce), 1% BSA, 0.05% Tween 20, 1 mM DTT) to remove unbound ligand and to reduce non-specific binding. Binding reactions were assembled by combining kinase, liganded affinity beads, and test compounds in 1× binding buffer (20% SeaBlock, 0.17×PBS, 0.05% Tween 20, 6 mM DTT). Test compounds were prepared as 100× stocks in DMSO and rapidly diluted into the aqueous environment. DMSO was added to control assays lacking a test compound. Primary screen interactions were performed in polypropylene 384-well plates in a final volume of 34 μL, while Kd determinations were performed in polystyrene 96-well plates in a final volume of 135 μL. The assay plates were incubated at room temperature with shaking for 1 hour, long enough for binding reactions to reach equilibrium, and the affinity beads were washed extensively with wash buffer (1×PBS, 0.05% Tween 20) to remove unbound protein. The beads were then resuspended in elution buffer (1×PBS, 0.05% Tween 20, 2 μM non-biotinylated affinity ligand) and incubated at room temperature with shaking for 30 min. The kinase concentration in the eluates was measured by quantitative PCR. Each kinase was tested individually against each compound. Kds were determined using eleven serial threefold dilutions. A selectivity score, which is a quantitative measure of selectivity of a compound against a panel of enzymes, may be calculated for a compound by dividing the number of enzymes for which a compound meets a set criteria, (for example, a binding constant of 100 nM or less), by the total number of enzymes tested.

JAK3 = target: T2, JAK3 (Homo sapiens, UniProt P52333); test: Competition binding assay to determine binding constants (Kd), JAK3
T2 construct: made in house; host or cells: T7 phage display or HEK-293 cells (alternatives)
T2 sequence (P52333 1-1124): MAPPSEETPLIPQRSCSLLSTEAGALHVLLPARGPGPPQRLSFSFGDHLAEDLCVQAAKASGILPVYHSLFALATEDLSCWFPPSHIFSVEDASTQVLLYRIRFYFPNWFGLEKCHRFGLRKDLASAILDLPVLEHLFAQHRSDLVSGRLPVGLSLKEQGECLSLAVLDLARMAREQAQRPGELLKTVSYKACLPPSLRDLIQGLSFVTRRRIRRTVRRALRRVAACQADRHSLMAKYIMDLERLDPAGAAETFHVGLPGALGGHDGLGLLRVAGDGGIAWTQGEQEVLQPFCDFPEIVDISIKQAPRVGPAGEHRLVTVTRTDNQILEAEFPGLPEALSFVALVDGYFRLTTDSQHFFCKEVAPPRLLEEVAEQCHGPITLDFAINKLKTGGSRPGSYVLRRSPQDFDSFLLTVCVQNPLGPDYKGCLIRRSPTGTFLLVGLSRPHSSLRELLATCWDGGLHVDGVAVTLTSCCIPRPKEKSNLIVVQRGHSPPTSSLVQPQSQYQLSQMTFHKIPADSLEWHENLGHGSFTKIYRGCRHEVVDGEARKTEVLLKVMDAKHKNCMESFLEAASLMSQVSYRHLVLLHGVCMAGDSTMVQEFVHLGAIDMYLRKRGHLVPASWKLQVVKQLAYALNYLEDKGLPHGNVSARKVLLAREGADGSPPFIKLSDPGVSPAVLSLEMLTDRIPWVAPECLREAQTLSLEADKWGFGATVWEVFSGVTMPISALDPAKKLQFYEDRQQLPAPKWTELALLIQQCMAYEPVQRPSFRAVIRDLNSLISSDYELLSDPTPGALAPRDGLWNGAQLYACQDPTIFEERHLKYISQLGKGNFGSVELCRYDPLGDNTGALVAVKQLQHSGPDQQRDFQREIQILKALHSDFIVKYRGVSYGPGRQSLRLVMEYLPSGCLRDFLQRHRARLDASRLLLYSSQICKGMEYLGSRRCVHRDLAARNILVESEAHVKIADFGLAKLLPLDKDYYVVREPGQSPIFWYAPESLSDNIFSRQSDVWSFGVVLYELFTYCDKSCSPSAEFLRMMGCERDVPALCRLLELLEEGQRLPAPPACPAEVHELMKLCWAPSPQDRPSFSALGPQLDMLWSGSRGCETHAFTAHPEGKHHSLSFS
Source text: as §1, §2

TYK2 = target: T3, TYK2 (Homo sapiens, UniProt P29597); test: Competition binding assay to determine binding constants (Kd), TYK2
T3 construct: made in house; host or cells: T7 phage display or HEK-293 cells (alternatives)
Source text: as §1, §2

T1 sequence (O60674 whole entry): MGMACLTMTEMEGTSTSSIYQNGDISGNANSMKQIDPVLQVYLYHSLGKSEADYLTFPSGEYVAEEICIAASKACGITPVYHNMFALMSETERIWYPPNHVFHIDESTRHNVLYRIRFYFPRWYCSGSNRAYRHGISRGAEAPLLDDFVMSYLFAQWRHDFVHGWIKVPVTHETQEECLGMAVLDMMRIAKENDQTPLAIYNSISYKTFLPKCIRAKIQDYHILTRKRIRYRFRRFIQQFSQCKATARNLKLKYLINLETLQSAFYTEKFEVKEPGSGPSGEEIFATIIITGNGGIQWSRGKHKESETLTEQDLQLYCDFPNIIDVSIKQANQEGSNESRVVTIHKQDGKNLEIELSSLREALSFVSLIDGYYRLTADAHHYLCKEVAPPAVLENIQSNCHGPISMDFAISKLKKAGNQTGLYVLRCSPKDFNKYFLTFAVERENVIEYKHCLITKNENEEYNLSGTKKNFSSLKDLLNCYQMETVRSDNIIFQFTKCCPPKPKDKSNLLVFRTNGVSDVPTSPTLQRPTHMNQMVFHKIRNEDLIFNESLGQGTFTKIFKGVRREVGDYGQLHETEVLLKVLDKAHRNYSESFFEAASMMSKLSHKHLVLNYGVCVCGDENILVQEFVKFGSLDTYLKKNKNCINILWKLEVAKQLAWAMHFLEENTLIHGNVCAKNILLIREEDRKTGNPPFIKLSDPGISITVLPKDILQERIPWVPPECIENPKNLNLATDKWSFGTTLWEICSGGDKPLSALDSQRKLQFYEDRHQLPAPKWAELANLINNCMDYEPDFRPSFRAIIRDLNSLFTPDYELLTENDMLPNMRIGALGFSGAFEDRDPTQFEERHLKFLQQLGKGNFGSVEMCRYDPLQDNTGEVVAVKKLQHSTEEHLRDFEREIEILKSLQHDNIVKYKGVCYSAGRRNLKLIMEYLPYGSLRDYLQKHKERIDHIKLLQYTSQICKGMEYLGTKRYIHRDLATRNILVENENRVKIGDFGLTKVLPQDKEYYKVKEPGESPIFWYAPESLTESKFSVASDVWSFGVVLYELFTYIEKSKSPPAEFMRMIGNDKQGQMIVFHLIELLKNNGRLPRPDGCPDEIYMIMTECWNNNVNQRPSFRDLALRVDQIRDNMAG
T3 sequence (P29597 whole entry): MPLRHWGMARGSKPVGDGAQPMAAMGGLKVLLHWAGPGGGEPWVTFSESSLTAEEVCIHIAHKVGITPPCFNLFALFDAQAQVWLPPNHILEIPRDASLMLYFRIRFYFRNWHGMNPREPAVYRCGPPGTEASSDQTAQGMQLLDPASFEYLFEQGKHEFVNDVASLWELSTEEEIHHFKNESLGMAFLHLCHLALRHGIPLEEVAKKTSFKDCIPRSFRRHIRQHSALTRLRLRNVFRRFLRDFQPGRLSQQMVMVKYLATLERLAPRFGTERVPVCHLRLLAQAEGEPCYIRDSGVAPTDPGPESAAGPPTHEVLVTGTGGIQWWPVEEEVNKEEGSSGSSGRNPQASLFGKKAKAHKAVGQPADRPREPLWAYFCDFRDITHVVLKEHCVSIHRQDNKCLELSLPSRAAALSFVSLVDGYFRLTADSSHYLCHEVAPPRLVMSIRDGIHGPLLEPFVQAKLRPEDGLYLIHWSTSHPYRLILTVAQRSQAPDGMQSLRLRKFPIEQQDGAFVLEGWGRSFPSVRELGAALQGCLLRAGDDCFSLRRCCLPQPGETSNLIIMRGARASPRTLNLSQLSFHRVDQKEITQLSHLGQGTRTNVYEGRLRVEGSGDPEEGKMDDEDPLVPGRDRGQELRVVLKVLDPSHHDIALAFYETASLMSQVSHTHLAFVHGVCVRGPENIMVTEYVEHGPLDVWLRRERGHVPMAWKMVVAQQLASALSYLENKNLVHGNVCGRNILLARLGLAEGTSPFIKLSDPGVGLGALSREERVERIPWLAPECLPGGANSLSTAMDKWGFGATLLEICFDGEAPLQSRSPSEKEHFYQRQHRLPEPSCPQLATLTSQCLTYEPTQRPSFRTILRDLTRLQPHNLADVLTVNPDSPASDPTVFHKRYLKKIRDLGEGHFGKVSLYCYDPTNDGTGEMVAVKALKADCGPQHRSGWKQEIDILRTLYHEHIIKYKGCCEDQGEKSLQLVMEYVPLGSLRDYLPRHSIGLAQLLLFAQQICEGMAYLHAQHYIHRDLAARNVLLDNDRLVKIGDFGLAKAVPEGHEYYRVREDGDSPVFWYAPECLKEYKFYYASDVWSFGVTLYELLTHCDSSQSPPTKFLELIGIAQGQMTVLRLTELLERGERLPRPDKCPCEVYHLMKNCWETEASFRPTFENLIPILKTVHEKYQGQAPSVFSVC

| IC50 [1] [nM] | Kd (JAK2) [nM] | Kd (JAK3) [nM] | Kd (TYK2) [nM] | SMILES |
| --- | --- | --- | --- | --- |
| ≤ 100 | ≤ 1 | ≤ 10 | ≤ 10 | CCn1ccc2c(Nc3cc(C)[nH]n3)nc(S(=O)(=O)c3ccc(F)cc3)nc21 [Example 7, 7-ethyl-2-(4-fluorophenylsulfonyl)-N-(5-methyl-1H-pyrazol-3-yl)-7H-pyrrolo[2,3-d]pyrimidin-4-amine] |
| ≤ 100 | ≤ 1 | ≤ 10 | ≤ 10 | CCn1ccc2c(Nc3cc(OC)[nH]n3)nc(S(=O)(=O)c3ccc(F)cc3)nc21 [Example 14, 7-ethyl-2-(4-fluorophenylsulfonyl)-N-(5-methoxy-1H-pyrazol-3-yl)-7H-pyrrolo[2,3-d]pyrimidin-4-amine] |
| 100 to 500 | ≤ 1 | 10 to 100 | ≤ 10 | Cc1cc(Nc2nc(C(F)(F)c3ccc(F)cc3)nc3nn(C)cc23)n[nH]1 [Example 20, 6-(difluoro(4-fluorophenyl)methyl)-2-methyl-N-(5-methyl-1H-pyrazol-3-yl)-2H-pyrazolo[3,4-d]pyrimidin-4-amine] |
| ≤ 100 | ≤ 1 | ≤ 10 | ≤ 10 | Cc1cc(Nc2nc(S(=O)(=O)c3ccc(F)cc3)nc3c2ccn3C(C)C)n[nH]1 [Example 10, 2-(4-fluorophenylsulfonyl)-7-isopropyl-N-(5-methyl-1H-pyrazol-3-yl)-7H-pyrrolo[2,3-d]pyrimidin-4-amine] |
| 100 to 500 | ≤ 1 | ≤ 10 | ≤ 10 | Cc1cc(Nc2nc(S(=O)(=O)c3ccc(F)cc3)nc3c2ccn3CC(=O)N(C)C)n[nH]1 [Example 15] |
| 100 to 500 | ≤ 1 | 10 to 100 | ≤ 10 | Cn1cc2c(Nc3cc[nH]n3)nc(C(F)(F)c3ccc(F)cc3)nc2n1 [Example 21, 6-(difluoro(4-fluorophenyl)methyl)-2-methyl-N-(1H-pyrazol-3-yl)-2H-pyrazolo[3,4-d]pyrimidin-4-amine] |
| ≤ 100 | ≤ 1 | 10 to 100 | ≤ 10 | Cn1ccc2c(Nc3cc[nH]n3)nc([S+]([O-])c3ccc(F)cc3)nc21 (racemic) [Example 5, (R,S)-2-(4-fluorophenylsulfinyl)-7-methyl-N-(1H-pyrazol-3-yl)-7H-pyrrolo[2,3-d]pyrimidin-4-amine] |
| 100 to 500 | ≤ 1 | 10 to 100 | ≤ 10 | Cc1cc(Nc2nc(C(F)(F)c3ccc(F)cc3)nc3c2cnn3C)n[nH]1 [Example 26, 6-(difluoro(4-fluorophenyl)methyl)-1-methyl-N-(5-methyl-1H-pyrazol-3-yl)-1H-pyrazolo[3,4-d]pyrimidin-4-amine] |
| 100 to 500 | 1 to 10 | 10 to 100 | 10 to 100 | C=Cn1ncc2c(Nc3cc(C)[nH]n3)nc(C(F)(F)c3ccc(F)cc3)nc21 [Example 33, 6-(difluoro(4-fluorophenyl)methyl)-N-(5-methyl-1H-pyrazol-3-yl)-1-vinyl-1H-pyrazolo[3,4-d]pyrimidin-4-amine] |
| ≤ 100 | ≤ 1 | ≤ 10 | ≤ 10 | Cc1cc(Nc2nc(S(=O)(=O)c3ccc(F)cc3)nc3[nH]ccc23)n[nH]1 [Example 4, 2-(4-fluorophenylsulfonyl)-N-(5-methyl-1H-pyrazol-3-yl)-7H-pyrrolo[2,3-d]pyrimidin-4-amine] |
| ≤ 100 | 1 to 10 | ≤ 10 | ≤ 10 | Cc1cc(Nc2nc(C(F)(F)c3ccc(F)cc3)nc3nc(N4CCN(C)CC4)sc23)n[nH]1 [Example 38, 5-(difluoro(4-fluorophenyl)methyl)-N-(5-methyl-1H-pyrazol-3-yl)-2-(4-methylpiperazin-1-yl)thiazolo[4,5-d]pyrimidin-7-amine] |
| > 500 | 1 to 10 | > 100 | 10 to 100 | Cc1cc(Nc2nc(S(=O)(=O)c3ccc(F)cc3)nc3c2cnn3-c2ccccc2)n[nH]1 [Example 31, 6-(4-fluorophenylsulfonyl)-N-(5-methyl-1H-pyrazol-3-yl)-1-phenyl-1H-pyrazolo[3,4-d]pyrimidin-4-amine] |
| ≤ 100 | 1 to 10 | ≤ 10 | ≤ 10 | Cc1cc(Nc2nc(S(=O)(=O)c3ccc(F)cc3)nc3c2ccn3CCN2CCOCC2)n[nH]1 [Example 19, 2-(4-fluorophenylsulfonyl)-N-(5-methyl-1H-pyrazol-3-yl)-7-(2-morpholinoethyl)-7H-pyrrolo[2,3-d]pyrimidin-4-amine] |
| 100 to 500 | 1 to 10 | 10 to 100 | ≤ 10 | Cc1cc(Nc2nc(C(F)(F)c3ccc(F)cc3)nc3ncsc23)n[nH]1 [Example 41, 5-(difluoro(4-fluorophenyl)methyl)-N-(5-methyl-1H-pyrazol-3-yl)thiazolo[4,5-d]pyrimidin-7-amine] |
| 100 to 500 | 1 to 10 | 10 to 100 | ≤ 10 | Cc1cc(Nc2nc(C(F)(F)c3ccc(F)cc3)nc3c2cnn3CCN2CCOCC2)n[nH]1 [Example 32, 6-(difluoro(4-fluorophenyl)methyl)-N-(5-methyl-1H-pyrazol-3-yl)-1-(2-morpholinoethyl)-1H-pyrazolo[3,4-d]pyrimidin-4-amine] |
| 100 to 500 | ≤ 1 | 10 to 100 | ≤ 10 | Cc1cc(Nc2nc(C(F)(F)c3ccc(F)cc3)nc3nc(N4CCCC4)sc23)n[nH]1 [Example 36, 5-(difluoro(4-fluorophenyl)methyl)-N-(5-methyl-1H-pyrazol-3-yl)-2-(pyrrolidin-1-yl)thiazolo[4,5-d]pyrimidin-7-amine] |
